Tests used:
human red blood cells = assay: Hemolysis in human blood; conditions: 100 μM, 45 min, 37° C.
P. aeruginosa (PA01) = assay: Checkerboard potentiation assay with novobiocin; type: cell-based
Procedure: (§1) Bacterial strains and culture conditions. The following bacterial strains were used within this study; A. baumannii (ATCC 17978), K. pneumoniae (ATCC 43816), K. pneumoniae (ATCC 43816, expressing pGDP2:mcr-1), P. aeruginosa (PA01). Bacterial growth was in cation-adjusted Mueller-Hinton broth (MHB) at 37° C., and inoculum was prepared according to CLSI protocol (CLSI 2015).
(§2) Potentiation assays. Checkerboard analyses were conducted with each drug serially diluted at eight concentrations to create an 8×8 matrix. At least two biological replicates were done for each combination, and the means were used for FIC calculation. The FIC for each drug was calculated by dividing the concentration of the drug in the presence of codrug in a combination for a well showing <10% growth by the MIC for that drug alone. The FIC index (FICI) is the sum of the two FICs, with an FIC index≤0.5 deemed synergistic.
(§3) To probe the spectrum of activity of the present analogs beyond A. baumannii, their interactions with novobiocin were assessed against the high-priority Gram-negative pathogens Klebsiella pneumoniae and P. aeruginosa (FIG. 5).

[1] = test system: K. pneumoniae (ATCC 43816); assay: Checkerboard potentiation assay with novobiocin; type: cell-based
Procedure: as §1, §2, §3

A. baumannii ATCC 17978 [2] = conditions: murine systemic A. baumannii infection, Stokes et al. 2017; cited from earlier work
LPS from E. coli EH100 = assay: BODIPY-Cadaverine LPS displacement assay; type: binding; conditions: BODIPY-cadaverine displacement from E. coli EH100 LPS
Procedure: BODIPY-Cadaverine LPS displacement assay. The BODIPY-cadaverine LPS displacement assay was performed as previously described (Wood et al. 2004. Combinatorial Chemistry & High Throughput Screening, 7: 239-49; Klobucar et al. 2021. ACS Chemical Biology, 16: 929-42). A solution of BODIPY-cadaverine (2.25 μM) and LPS from E. coli EH100 (5.25 μM) in Tris-HCl buffer (50 mM, pH 7.4) was prepared. 0.5 μL of compound and 49.5 μL of the Tris-HCl buffer with BODIPY-cadaverine and LPS solution were added to a Corning nonbinding surface black 384-well polystyrene plate. Fluorescence intensity was measured immediately with an excitation wavelength of 580 nm and an emission wavelength of 620 nm. EC50 values were calculated using a three-parameter logistic curve in GraphPad Prism 9.

[3] = test system: A. baumannii (ATCC 17978); assay: Checkerboard potentiation assay with novobiocin; type: cell-based; conditions: with novobiocin
Procedure: as §1, §2

in vitro = conditions: human
[4] = Pharmacokinetic analysis after single intravenous dose
Procedure: (§4) Plasma samples were taken from 3 mice per time point (5, 15, 30 min; 1, 2, 4, 6 and 8 h post-dose). An aliquot of 2 μL sample was protein precipitated with 60 μL methanol, the mixture was vortex-mixed well and centrifuged at 13000 rpm for 10 min at 4° C. 2 μL supernatant was injected for LC-MS/MS analysis. The mean plasma concentration and the standard deviation from all 3 animals within each time point were calculated. PK parameters were calculated with a non-compartmental analysis. The mean plasma concentrations from all 3 mice at each time point were used in the calculations.

HepG2 cells = conditions: human, 72 h
A. baumannii ATCC 17978 [5] = assay: Systemic A. baumannii murine infection model; type: in vivo, mouse
Procedure: Mouse infection models. Animal experiments were conducted according to guidelines set by the Canadian Council on Animal Care using protocols approved by the Animal Review Ethics Board at McMaster University under Animal Use Protocol #20-12-43. Before infection, mice were relocated at random from a housing cage to treatment or control cages. No animals were excluded from analyses, and blinding was considered unnecessary. Seven- to nine-week-old female C57BL/6 mice (Charles River) were infected intraperitoneally with ˜2×10^6 CFU of A. baumannii ATCC 17978, with 5% porcine mucin (Sigma-Aldrich). Infections were allowed to establish for 2 h, and treatments were administered intraperitoneally. For the survival study, the clinical endpoint was determined using a five-point body condition score analyzing weight loss, decrease in body temperature, respiratory distress, hampered mobility and hunched posture. Experimental endpoint was defined as five days post-infection for mice not reaching clinical endpoint. For CFU/mL enumeration, animals were infected as described above and euthanized 6 h post-infection, and blood was collected into sterile 2 ml heparinized tubes (BD Scientific) serially diluted in PBS and plated onto solid LB. Plates were incubated overnight at 37° C., and colonies were quantified to determine bacterial load.
This was directly compared to the activity of P35 and P36 in this model (all administered at 10 mg/kg) in combination with novobiocin (50 mg/kg).
For this experiment the same A. baumannii infection model was used, however, endpoint was defined as 6 h post-infection, at which point blood was collected for CFU/mL enumeration (FIG. 2b).

[6] = HEK293 cytotoxicity assay (Cell Titer Glo); type: cell-based; conditions: human, HEK293 cells (ATCC CRL 1573), 48 h treatment, Cell Titer Glo; called AC50 in the text; read-out: HEK293T Cytotoxicity (IC50, μg/mL)
Procedure: Cytotoxicity Assays. HEK293 (ATCC CRL 1573) cells were left to adhere for 18 h at 7.5×10^3 cells per well in DMEM containing 10% FBS and 2 mM L-glutamine. Compound was added directly into the well. After 48 h of treatment Promega Cell Titer Glo 2.0® was added, shaken for 10 min, and luminescence read (Biotek Neo). AC50 values were calculated using a four-parameter logistic curve in GraphPad Prism 9.
Focusing on only the analogs that retained synergistic activity with novobiocin (FICI≤0.5), half-maximal activity (AC50) values were calculated against HEK293 cells using a CellTiter-Glo® based assay to approximate cell viability. […] Specifically, the FICI value for both P35 and P36 was 0.094 against A. baumannii, while their AC50 values were 235 μg/mL and 200 μg/mL, respectively.

in vivo = conditions: female, C57BL/6, mouse, plasma, iv, 1 mg/kg
Procedure: as §4

Structure (SMILES): N=C(N)c1ccc(OCCCCCOc2ccc(C(=N)N)cc2)cc1 [Pentamidine, pentamidine, reference compound]
- Hemolysis of human blood (human red blood cells): Neither compound was hemolytic
- FICI PA (P. aeruginosa (PA01)): 0.75
- FICI KP [1]: 0.375
- Animals rescued in combination with novobiocin (previous work) (A. baumannii ATCC 17978 [2]): 100%
- LPS Displacement (EC50, μg/mL) (LPS from E. coli EH100): 231 µg/mL
- FICI AB [3]: 0.25
- AC50 at 72 h (in vitro; HepG2 viability / cell cycle arrest AC50, HepG2, 72 h incubation): < 0.293 µM
- AC50 at 72 h (in vitro; Nuclear Size AC50 (μM)): 2.28 µM
- AC50 at 72 h (in vitro; Phospholipidosis AC50 (μM)): > 150 µM
- Adverse effects after single intravenous dose ([4]; female C57BL/6 mice, 1 mg/kg i.v. in water): no adverse effects
- AUCExtra (%) ([4]; mouse, 1 mg/kg IV): 2.76%
- AUMCExtra (%) ([4]; mouse, 1 mg/kg IV): 45.8%
- Tlast ([4]; mouse, 1 mg/kg IV): 4.00 h
- AC50 (HepG2 cells): > 150000 nM
- Reduction in blood CFU/mL in combination with novobiocin (A. baumannii ATCC 17978 [5]; 10 mg/kg + 50 mg/kg novobiocin, 6 h post-infection): 2.08 log10
- Animals rescued in combination with novobiocin (A. baumannii ATCC 17978 [5]; 10 mg/kg analog + 50 mg/kg novobiocin i.p. 2 h post-infection, endpoint 5 days): 100%
- IC50 at 48 h [6]: 73 µg/mL
- AUC(0-inf) (in vivo): 119 ng·h/mL
- AUC(0-t) (in vivo): 116 ng·h/mL
- C0 (in vivo): 1260 ng/mL
- MRT inf (in vivo): 24.7 min
- MRT last (in vivo): 13.7 min
- Vd (in vivo): 3.45 L/kg
- clearance (in vivo): 140 mL/min/kg
- half-life (in vivo): 118 min

— US20250382261A1 (The Broad Institute, Inc., priority 2021, published 2025)
